The source of these data is ChEMBL document CHEMBL5233205, “VISTA inhibitors in cancer immunotherapy: a short perspective on recent progresses” (RSC Med Chem, 2021).

Positions of bridges follow the written chain, without caps; N, C: chain ends. Non-standard residues stand in square brackets, D forms with d. Residues, ends and D or L forms follow the SMILES beside them. *: point of attachment. X1 = N[C@@H](CO)C(=O)N[C@@H](Cc1ccccc1)C(=O)NCCCCN*; NMeT = CN[C@H](C(=O)O)[C@@H](C)O

Usually IC50 stands for the concentration that gives 50% inhibition. The term EC50 denotes the concentration needed to bring the measured effect to its halfway point. Broadly, the half-life is the time in which the quantity being followed falls by half.

Series [1] concerns Splenocyte. Briefly: Cytoprotective activity against anti-CD3/CD28 stimulated mouse splenocyte assessed as rescue of cell proliferation at 100 nM incubated for 72 hrs by CFSE staining based flow cytometric analysis. The format is functional.
For series [2], the target named is T1, V-type immunoglobulin domain-containing suppressor of T-cell activation (Homo sapiens, UniProt Q9H7M9).
T1 sequence (Q9H7M9 whole entry): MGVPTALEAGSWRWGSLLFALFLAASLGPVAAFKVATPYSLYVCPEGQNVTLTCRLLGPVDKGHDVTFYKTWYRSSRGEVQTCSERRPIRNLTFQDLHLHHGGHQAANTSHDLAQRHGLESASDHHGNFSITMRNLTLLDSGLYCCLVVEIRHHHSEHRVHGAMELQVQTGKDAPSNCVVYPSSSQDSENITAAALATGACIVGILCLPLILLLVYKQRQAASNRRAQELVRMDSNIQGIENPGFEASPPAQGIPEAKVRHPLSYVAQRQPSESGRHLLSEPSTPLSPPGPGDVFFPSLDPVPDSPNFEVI
The experiment in a line: Binding affinity to recombinant human His-tagged VISTA ECD incubated for 2 hrs by TR-FRET assay. For orientation: Time-resolved FRET reads energy transfer from a long-lived donor to a nearby acceptor.

Series [3] deals with T1, V-type immunoglobulin domain-containing suppressor of T-cell activation. The experiment in a line: Binding affinity to recombinant human VISTA ECD incubated for 2 hrs by ELISA assay. For orientation: In an ELISA, binding on a coated surface is turned into a signal by an enzyme label.
The subject of series [4] is Splenocyte. The experiment in a line: Cytoprotective activity against anti-CD3/CD28 stimulated mouse splenocyte assessed as rescue of PD-L1 stimulated inhibition of proliferation at 100 nM incubated for 72 hrs by CFSE staining based flow cytometric analysis. Also on record: scale not given: the % may be the effect or the level left.
Series [5] concerns Splenocyte. The experiment in a line: Cytoprotective activity against anti-CD3/CD28 stimulated mouse splenocyte co-cultured with MDA-MB-231 cells overexpressing PD-L1 assessed as rescue of cell proliferation at 100 nM incubated for 72 hrs by CFSE staining based flow cytometric analysis relative to control. The format is functional.
Series [6] deals with T1, V-type immunoglobulin domain-containing suppressor of T-cell activation. The experiment in a line: Inhibition of VISTA (unknown origin) incubated for 15 mins by LANCE Ultra TR-FRET assay.
In series [7] the target is Programmed cell death 1 ligand 1 (Homo sapiens, UniProt Q9NZQ7). The experiment in a line: Inhibition of His-tagged human recombinant PD-L1 incubated for 15 mins by LANCE Ultra TR-FRET assay.
Series [8] can be described thus: Half life in mouse liver microsomes at 1 uM by LC-MS/MS analysis. The format is ADME, Microsome. Background: Liver microsomes are vesicles of endoplasmic reticulum, rich in cytochrome P450 enzymes.
In series [9] the test system is B16-F10. Briefly: Antimetastatic activity against mouse B16-F10 cells implanted in C57BL/6 mouse assessed as decrease in lung metastasis at 5 mg/kg,sc and measured after 14 days. The following applies: time 14 day. The format is functional. Further details: scale not given: the % may be the effect or the level left.

Chain of Programmed cell death 1 ligand 1 (Q9NZQ7 whole entry): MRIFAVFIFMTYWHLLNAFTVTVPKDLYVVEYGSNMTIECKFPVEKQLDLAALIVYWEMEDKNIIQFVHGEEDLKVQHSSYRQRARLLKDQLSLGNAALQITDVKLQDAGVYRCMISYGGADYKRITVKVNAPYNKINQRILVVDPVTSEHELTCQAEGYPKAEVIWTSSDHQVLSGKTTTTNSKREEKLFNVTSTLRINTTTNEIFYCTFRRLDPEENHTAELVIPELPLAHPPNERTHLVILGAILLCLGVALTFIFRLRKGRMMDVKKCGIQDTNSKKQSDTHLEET

As to `NCCCC[C@H](NC(=O)N[C@@H](CC(N)=O)C(=O)NNC(=O)[C@@H](N)CO)C(=O)O`, the Activity in [1] was 87%.
Consider `CN(C)c1n/c(=N\Cc2ccco2)ss1`, for which the IC50 turned out to be 4.8 µM in [2] and 9.7 µM in series [3].
In the case of `C[C@H](O)[C@H](NC(=O)N[C@@H](CC(N)=O)c1nc([C@@H](N)CO)no1)C(=O)O`, the figures for the Activity in series [4], in series [5] and in [1] were more than 70%, 89% and 97%, respectively. Moreover, the 50% effective concentration (EC50) in series [6] was determined as 0.0829 µM; in [7], 0.0661 µM.
Regarding `CC[C@H](C)[C@H](NC(=O)[C@H](CCC(N)=O)NC(=O)[C@H](C)NC(=O)[C@H](CCCCN)NC(=O)[C@@H]1CCCN1C(=O)[C@H](C)NC(=O)[C@H](CC(C)C)NC(=O)[C@H](CCC(N)=O)NC(=O)[C@@H](NC(=O)[C@@H](NC(=O)[C@H](CCCNC(=N)N)NC(=O)[C@H](Cc1ccccc1)NC(=O)[C@H](CCCCN[C@@H](Cc1ccccc1)C(=O)N[C@@H](CO)C(=O)N[C@@H](CCC(=O)O)C(=O)N[C@@H](CO)C(=O)N[C@H](C(=O)N[C@@H](CC(N)=O)C(=O)N[C@@H](CO)C(=O)O)[C@@H](C)O)NC(=O)[C@H](Cc1ccccc1)NC(=O)[C@H](CO)NC(=O)[C@H](CCC(=O)O)NC(=O)[C@H](CO)NC(=O)[C@@H](NC(=O)[C@H](CC(N)=O)NC(=O)[C@@H](N)CO)[C@@H](C)O)C(C)C)[C@@H](C)O)C(=O)N[C@@H](CCCCN)C(=O)N[C@@H](CCC(=O)O)C(=O)O`, the half-life at 1 µM in series [8] was more than 1.5 h.
For the compound `C[C@H](O)[C@@H]1NC(=O)N[C@@H](CC(N)=O)C(=O)NNC(=O)[C@H](CO)NC(=O)COCCOCCNC1=O`, the Activity in series [1] is listed as 87%.
For `C[C@H](O)[C@H](NC(=O)N[C@@H](CC(N)=O)c1nc([C@@H](N)CCCCN)no1)C(=O)O`, the Activity in [4] is listed as 96%; in series [1], 50%.
For `CCCNC(=O)CC[C@H](NC(=O)N[C@H](C(=O)O)[C@H](C)O)c1nc([C@@H](N)CO)no1` the same measures were 119% and less than 50%.
Consider `C[C@H](O)[C@H](NC(=O)N[C@@H](CC(N)=O)c1nc(C2(N)CCCCC2)no1)C(=O)O`, for which the Activity in [1] was 86%.
For `C[C@@H](O)[C@H]1C(=O)N[C@@H](CO)C(=O)N[C@H](C(=O)N[C@@H](CO)C(=O)N[C@@H](Cc2ccccc2)C(N)=O)CCCCNC(=O)CC[C@H](NC(=O)[C@@H](N)CO)C(=O)N1C` (H-SE[NMeT]SKSF-NH2; lactam 2-5), the Activity in series [1] turned out to be 82%.
In the case of `C[C@@H](O)[C@@H]1NC(=O)[C@@H](NC(=O)[C@@H](N)CO)CCCCNC(=O)CC[C@@H](C(=O)N[C@@H](CO)C(=O)N[C@@H](Cc2ccccc2)C(N)=O)NC(=O)[C@H](CO)NC1=O` (H-SKTSESF-NH2; lactam 2-5), the Activity in [5] is listed as 60%.
On to `C[C@@H](O)[C@H](NC(=O)[C@H](CCC(N)=O)NC(=O)[C@@H](N)CO)C(=O)N[C@@H](CO)C(=O)N[C@@H](CCC(=O)NCCCCNC(=O)[C@H](Cc1ccccc1)NC(=O)[C@@H](N)CO)C(N)=O` (H-SQTSE(X1)-NH2), for which, in series [9], the Activity amounted to 64%.
